B1: Wnt3a: factor of the Wnt signaling pathway added to the differentiation medium (protein, UniProt P56704 19-352, looked up)
Protein Wnt-3a: SYPIWWSLAVGPQYSSLGSQPILCASIPGLVPKQLRFCRNYVEIMPSVAEGIKIGIQECQHQFRGRRWNCTTVHDSLAIFGPVLDKATRESAFVHAIASAGVAFAVTRSCAEGTAAICGCSSRHQGSPGKGWKWGGCSEDIEFGGMVSREFADARENRPDARSAMNRHNNEAGRQAIASHMHLKCKCHGLSGSCEVKTCWWSQPDFRAIGDFLKDKYDSASEMVVEKHRESRGWVETLRPRYTYFKVPTERDLVYYEASPNFCEPNPETGSFGTRDRTCNVSSHGIDGCDLLCCGRGHNARAERRREKCRCVFHWCCYVSCQECTRVYDVHTCK
B2: Dkk1: factor of the Wnt signaling pathway added to the differentiation medium (protein, UniProt O94907 32-266, looked up)
Dickkopf-related protein 1: TLNSVLNSNAIKNLPPPLGGAAGHPGSAVSAAPGILYPGGNKYQTIDNYQPYPCAEDEECGTDEYCASPTRGGDAGVQICLACRKRRKRCMRHAMCCPGNYCKNGICVSSDQNHFRGEIEETITESFGNDHSTLDGYSRRTTLSSKMYHTKGQEGSVCLRSSDCASGLCCARHFWSKICKPVLKEGQVCTKHRRKGSHGLEIFQRCYCGEGLSCRIQKDHHQASNSSRLHTCQRH

How the values were obtained:
cardiac progenitor cells [1] = experiment: Effect of concentration of antifibrinolytic agent on cardiac progenitor cell-induced degradation of hydrogel (toluidine blue); assay type: cell-based; details: 0.5 or 1.0 mg/ml, 1 day culture
Experimental: 100 μl of the fibrinogen solution containing cardiac progenitor cells was added to 100 μl of each of the respective thrombin solutions containing aminomethylbenzoic acid in concentrations of […], 0.5, and 1.0 mg/ml. After complete formation of hydrogel, cardiac progenitor cells were cultured for 1 day, fixed with formalin, and stained with toluidine blue. An examination was made of the states of the fibrin hydrogels and cells.

[2] = system: cardiac progenitor cell-induced fibrinolysis; experiment: Inhibition of antifibrinolytic agents against cardiac progenitor cell-induced fibrinolysis (fibrin hydrogel degradation, Alexa Fluor 488-fibrinogen release); assay type: cell-based
Experimental: The cardiac progenitor cells were mixed at a density of 2×10^5 cells per 100 μl of each of the four fibrinogen solutions with 100 μl of the thrombin solution, followed by a cross-linking reaction for 2 hrs. Following the formation of hydrogel, 300 μl of a cell culture was added to the hydrogel, and incubated for 1 day. A hydrogel void of cardiac progenitor cells was prepared for use as a control.
Antifibrinolytic agents were purchased from Sigma.

myocardial fragments = experiment: Organ culture of myocardial fragments in fibrin hydrogel with antifibrinolytic agent (phase-contrast microscopy); assay type: cell-based, human; details: 100 μg/ml solution added to fibrinogen solution, organ culture 3 days
Experimental: Four fibrinogen solutions with respective concentrations of 2.5, 5.0, 10.0, and 20.0 mg/ml were prepared, and each was added with a 100 μg/ml aminomethylbenzoic acid or tranexamic acid solution, as in Example 5. From the heart of a brain-dead patient, the myocardium was taken after the removal of both the epicardium and the endocardium. […] The myocardial fragments were added at a density of 10 per 0.5 ml of a 1 unit/ml thrombin solution. Each of the four fibrinogen solutions was mixed at a volume ratio of 1:1 with the thrombin solution containing the cardiac fragments. The resulting mixture was aliquoted in an amount of 1 ml per well into 6-multiwell tissue culture plates before performing a polymerization and cross-linking reaction to form a hydrogel.

cardiac progenitor cells [3] = experiment: Suspension cell culture assay for differentiation into cardiomyocytes (real-time PCR); assay type: cell-based; details: 1 mM in medium, 1 and 3 days
Experimental: A suspension of cardiac progenitor cells in a medium inducing myocardial differentiation was seeded at a density of 20,000 to 100,000 cells/well into polymer-coated 24-multiwell tissue culture plates preventive of cell and protein adhesion (Ultra-Low Attachment Surface, Corning, Lowell, Mass.). The medium was supplemented with 1 mM Wnt3a or Dkk1 before culturing the cardiac progenitor cells in a suspension culture condition or a monolayer culture condition. After culturing for 1 and 3 days, RNA was isolated from the cardiac progenitor cells and used to synthesize cDNA. Real-time PCR was performed on this cDNA to quantify mRNA levels of bone morphogenetic protein 2 (BMP2), SOX17, ANP, α-MHC, β-MHC, MLC2a, and MLC2v (myosin light chain-2 ventricle), which are involved in the formation of cardiospheres or the Wnt signaling pathway, thus evaluating the potential to differentiate into cardiomyocytes.

| Molecule | mRNA levels of ANP, α-MHC, β-MHC, MLC-2a and MLC2v (cardiac progenitor cells [3]) | mRNA levels of BMP2 and SOX17 (cardiac progenitor cells [3]) | further results |
| --- | --- | --- | --- |
| NCc1ccc(C(=O)O)cc1 [aminomethylbenzoic acid] |  |  | cytotoxicity to the cardiac progenitor cells (cardiac progenitor cells [1]): caused cytotoxicity |
| NC[C@H]1CC[C@H](C(=O)O)CC1 [tranexamic acid] |  |  | antifibrinolytic activity compared with aminocaproid acid or aprotinin [2]: three times as high; hydrogel as cell adhesion substrate during organ culture of myocardial fragments (myocardial fragments): stable, three-dimensional cell adhesion substrates |
| aprotinin |  |  | degradation of fibrin hydrogel by cardiac progenitor cells ([2]; hydrogel containing the antifibrinolytic agent, cardiac progenitor cells embedded, incubated 1 day): 95% |
| B1 | increased | increased |  |
| B2 | reduced | decreased |  |

— patent US20130295060A1, “METHOD FOR CULTURING CARDIAC PROGENITOR CELLS AND USE OF CARDIAC PROGENITOR CELLS” (Ewha University-Industry Collaboration Foundation, priority 2012, published 2013)
